1 compound from paper PMC4969531, “Enhanced Absorption Study of Ginsenoside Compound K (20-O-β-(D-Glucopyranosyl)-20(S)-protopanaxadiol) after Oral Administration of Fermented Red Ginseng Extract (HYFRG™) in Healthy Korean Volunteers and Rats” (Evidence-based Complementary and Alternative Medicine : eCAM, 2016) can be followed below.

A short description of series [1]: Stability of compound K working stock solution in methanol. It counts as physicochemical. Particulars: n = 3. As for the experimental part: Stock solutions of compound K and IS were prepared separately by dissolving the accurately weighed compounds in methanol for a final concentration of 1000 μg/mL. The prepared stock solutions were stored in −80°C when not in use. Working solutions of compound K were prepared by serial dilution of the stock solution in methanol. Calibration standards were prepared by spiking 10 μL of the appropriate standard solutions to 190 μL of blank plasma for concentrations of 1, 5, 10, 50, 100, 500, and 1000 ng/mL. QC samples were prepared in the same manner as the calibration standards, for low, middle, and high concentrations of 3, 300, and 800 ng/mL. IS working solution (5 μg/mL) for routine use was freshly prepared by diluting IS stock solution in methanol. The standard and QC samples were extracted on each analysis run using the same procedure described below. […] The specificity of the method towards endogenous plasma matrix substances was assessed in double blank human plasma (without compound K and IS). […] Then, the chromatograms obtained from the sample spiked with compound K at lower limit of quantitation (LLOQ) and IS and actual plasma samples from a volunteer after oral administration of compound K were compared with those obtained from blank samples. The calibration curve was constructed by plotting the peak area ratios (y) of compound K to IS against the spiked concentrations (x) of compound K. Linearity was assessed by weighted (1/x) least squares regression analysis. […] It should be quantified with an acceptable bias within ±20% and a CV no greater than 20%. The LLOQ was determined as the concentrations with a signal to noise (S/N) ratio of 10. […] Precision is expressed as a coefficient of variance (CV) at each concentration. The accuracy of the assay was defined as a percentage of the measured concentration over the theoretical concentration. The acceptance criterion recommended by KFDA and USFDA for each back-calculated standard concentration is 20% deviation from the nominal for LLOQ and 15% for all others (KFDA 2013, USFDA 2013). […]

A short description of series [2]: Stability of compound K in human plasma (bench-top, refrigerator, freezer, freeze-thaw, extracted samples). The format is in vitro ADME. The following applies: n = 3; for Stability of extracted, autosampler (4°C), 20 h: extracted plasma sample; for Compound K in plasma, 4°C, 17 h / Compound K in plasma, room temperature, 17 h / Compound K in plasma, −80°C, 17 h / Freeze-thaw stability, three cycles, −80°C: human plasma. As for the experimental part: The LC-MS/MS method to determine compound K in human and rat plasma was validated and established in terms of specificity, sensitivity, linearity, accuracy, precision, recovery, matrix effect, and stability according to the bioanalytical method validation guidelines published by Korea Food and Drug Administration (KFDA) and USFDA [23, 24]. The specificity of the method towards endogenous plasma matrix substances was assessed in double blank human plasma (without compound K and IS). Double blank samples from six different lots of human blank plasma were tested for the presence of endogenous substances, which may interfere with compound K and IS using described above procedures and chromatographic/spectroscopic conditions. Then, the chromatograms obtained from the sample spiked with compound K at lower limit of quantitation (LLOQ) and IS and actual plasma samples from a volunteer after oral administration of compound K were compared with those obtained from blank samples. The calibration curve was constructed by plotting the peak area ratios (y) of compound K to IS against the spiked concentrations (x) of compound K. Linearity was assessed by weighted (1/x) least squares regression analysis. LLOQ was defined as the lowest concentration on the calibration curve. It should be quantified with an acceptable bias within ±20% and a CV no greater than 20%. The LLOQ was determined as the concentrations with a signal to noise (S/N) ratio of 10. The intra- and interday precision and accuracy assessments were performed on the same day (n = 5, at each concentration) and on three consecutive days at four concentrations ([…]). Precision is expressed as a coefficient of variance (CV) at each concentration. The accuracy of the assay was defined as a percentage of the measured concentration over the theoretical concentration. The acceptance criterion recommended by KFDA and USFDA for each back-calculated standard concentration is 20% deviation from the nominal for LLOQ and 15% for all others (KFDA 2013, USFDA 2013). The relative recovery, absolute matrix effect, and process efficiency were determined at three QC concentrations (3, 300, and 800 ng/mL, n = 3) of compound K and IS (500 ng/mL, n = 9). The relative recovery was measured by comparing the peak areas obtained from plasma samples spiked before extraction with those from plasma samples spiked after extraction. The absolute matrix effect was measured by comparing the peak response of plasma samples spiked after extraction with that of pure standards containing equivalent amounts of compound K and IS prepared in mobile phase. The process efficiency wasmeasured by comparing the peak response of plasma samples spiked before extraction with that of the pure standards containing equivalent amounts of compound K and IS prepared in mobile phase. […] The predicted concentrations of compound K at 3, 300, and 800 ng/mL samples differed by not more than 15% of the nominal concentrations in a set of stability tests, namely, in injector (20 h), bench-top (17 h), three repeated freeze-thaw cycles, and freezer stability at −80°C for 17 h. […] Although several analytical methods have been used to determine compound K concentrations in human plasma with LC-MS/MS using solid phase extraction or protein precipitation, we developed the fully validated analytical method optimized for our laboratory settings to meet both KFDA and USFDA guidelines for validating a bioanalytical method. Our analytical method was successfully used to evaluate the comparative pharmacokinetics of two red ginseng HYFRG or RG extracts in Koreans.

As to `CC(C)=CCCC(C)(OC1OC(CO)C(O)C(O)C1O)C1CCC2(C)C1C(O)CC1C3(C)CCC(O)C(C)(C)C3CCC12C` [Compound K, 20-O-β-(D-glucopyranosyl)-20(S)-protopanaxadiol], the “Working stock solution stability, room temperature, 6 h” value in series [1] (nominal 3 ng/mL) is recorded as 89.08 ± 3.89%; in series [1] (nominal 300 ng/mL) it was 89.11 ± 7.13%; in series [1] (nominal 800 ng/mL), 96.13 ± 7.43%. In addition, the “Stability of extracted, autosampler (4°C), 20 h” value is on record as 110.43 ± 12.89% in series [2] (nominal 3 ng/mL), 102.96 ± 4.83% in series [2] (nominal 300 ng/mL) and 103.46 ± 3.48% in series [2] (nominal 800 ng/mL). Further, the “Compound K in plasma, 4°C, 17 h” value in series [2] (nominal 3 ng/mL) is 112.11 ± 5.08%; in series [2] (nominal 300 ng/mL) it was 110.62 ± 2.31%; in series [2] (nominal 800 ng/mL), 107.40 ± 2.45%. The “Compound K in plasma, room temperature, 17 h” value in series [2] (nominal 3 ng/mL) was determined as 110.12 ± 3.01%; in series [2] (nominal 300 ng/mL) it was 106.83 ± 3.20%; in series [2] (nominal 800 ng/mL), 107.54 ± 0.20%. Also, the results for the “Compound K in plasma, −80°C, 17 h” value in series [2] (nominal 3 ng/mL), in series [2] (nominal 300 ng/mL) and in series [2] (nominal 800 ng/mL) were 115.04 ± 2.66%, 108.30 ± 1.60% and 104.95 ± 1.42%, respectively. The “Freeze-thaw stability, three cycles, −80°C” value came to 109.09 ± 7.07% in series [2] (nominal 3 ng/mL), 109.70 ± 2.38% in series [2] (nominal 300 ng/mL) and 106.13 ± 5.46% in series [2] (nominal 800 ng/mL).
